“Also recorded” adds a separate entry of the source.
Assays:
[1] = Quantum yield in CH2Cl2 (DCM) solution; assay type: physicochemical
Description: (§1) These new compounds (3Si/3Ge through 8Si %8Ge) show a strong absorption band in CH2Cl2 solution in the region of 371-394 nm (log ε values ranged from 4.25-5.23) and emission maxima in the region of 401-452 nm. The quantum efficiencies determined from solution samples containing the silafluorenes 3Si-8Si were high (0.80-0.87) and the related germafluorenes 3Ge-8Ge had slightly lower values between 0.64-0.83. […] The solid-state quantum yields have been measured for several of the sila- and germafluorenes. The solid-state quantum yields for 7 compounds have been measured and the values range from 0.14 to 0.91 with the highest values for compounds 5Ge […] and 6Ge (0.81). Additional quantum yield measurements both in solution and in the solid-state are made for other compounds shown in Scheme 2 (FIG. 2).
The silafluorenes show intense fluorescence both in solution and in the solid-state (FIG. 11). The quantum yield range in CH2Cl2 solution is 0.80-0.89 for several silafluorenes studied to date.
(§2) Quantum yields were collected for these compounds in aqueous solution and in the presence of the aforementioned surfactants and the data are shown in Table 2. Quantum yields in the presence of surfactants are markedly higher than in their absence. In the presence of detergents, the quantum yield is recovered to near perfect quantum efficiency.

[2] = Quantum yield in aqueous solution (Tris) and in the presence of surfactants; assay type: physicochemical; details: for φTX (quantum yield): 0.6 mM TX-100; for φSBDS (quantum yield): 10 mM SDBS; for φCTAB (quantum yield): 20 mM CTAB; for φCHAPS (quantum yield): 25 mM CHAPS; for φSDS (quantum yield): 30 mM SDS; for φTris (quantum yield): aqueous solution, Tris, no surfactant
Method: as §2
(§3) The surfactants are 0.6 mM TX-100, 25 mM CHAPS, 20 mM CTAB, 30 mM SDS, and 10 mM SDBS. ExpiCHO cells were stained with 10 μM 3Si for 15 minutes. Experimental details include Gains: 762; Digital gains: 2.3; Pinhole: 1 AU; and 2% Laser intensity.

[3] = Solubility in DMSO and in aqueous solution; assay type: physicochemical; details: for solubility in aqueous solution: aqueous solutions / aqueous buffer, diluted from DMSO
Description: Studies have been conducted herein for a series of silafluorenes with a broad range of alkynyl substituent groups: 3Si, 4Si, 7Si, […], 9Si, and 11Si, and 13Si. […] This provides a tunability to the optical behavior that is useful for bioimaging.
This provides a tunability to the optical behavior that is useful for imaging (FIG. 40).

[4] = Fluorescence change upon addition of detergent Triton X-100; details: for spectral change when Triton X-100 is added: neutral detergent Triton X-100
Method: (§4) Non-denaturing detergents, common proxies for membranes and lipids, were added to each compound. […] Moreover, the degree of enhancement is very sensitive to the aggregation state of the detergent: enhancement is more dramatic at concentrations at which the detergents are known to form micellar aggregates (critical micelle concentration).
Detergents enhance fluorescence. Triton X-100 (TX100) was added to each metallafluorene at concentrations below and above TX-100's CMC (0.3 mM), and fluorescence was measured (FIGS. 31A, 31B, and 32).
as §4, with “(i.e. the critical” for “(critical”

[5] = system: ExpiCHO cells; test: Fluorescence staining of CHO cells; assay type: cell-based; details: 10 μM, 15 minutes
Method: as §3

[6] = Solid-state quantum yield; assay type: physicochemical
Description: as §1

[7] = system: calf thymus (mixed sequence) DNA; test: Spectroscopic DNA binding study; details: aqueous buffer, calf thymus DNA added
[8] = system: yeast cells (S. cerevisiae); test: Fluorescence confocal microscopy of yeast cells; assay type: cell-based; details: permeabilized with DMSO, 405 nm laser, 100×
Method: S. cerevisiae were stained with 2,7-bis(4-ethynylphenanthrene)-3,6-dimethoxy-9,9-diphenylsilafluorene, referred to as Si phenanthrene, for 1 hour, then imaged on a confocal microscope (FIGS. 35 and 36).
S. cerevisiae were stained with 2,7-bis(4-ethynylbenzaldehyde)-3,6-dimethoxy-9,9-diphenylsilafluorene, referred to as Si benzaldehyde, for 1 hour, then imaged on a confocal microscope (FIG. 37). Again, DMSO was used to permeabilize cells.

[9] = Solvatochromism: emission in different solvents; assay type: physicochemical
Description: Solvents, like water and dichloromethane, greatly affect the fluorescence energy (i.e., color) of some molecules—this is called solvatochromism. Excited electrons may mobilize across the molecule more easily in these cases. For example, 2,7-bis(4-ethynylbenzaldehyde)-3,6-dimethoxysilafluorene emits green in ethanol, but blue in nonpolar solvents (FIGS. 23-24).

[10] = Absorption and emission in CH2Cl2 solution and in the solid-state; assay type: physicochemical
Description: as §1

φDCM (quantum yield) [1]	φTX (quantum yield) [2]	φSBDS (quantum yield) [2]	φCTAB (quantum yield) [2]	φCHAPS (quantum yield) [2]	φSDS (quantum yield) [2]	φTris (quantum yield) [2]	solubility in aqueous solution [3]	Structure (SMILES)	spectral change when Triton X-100 is added [4]	solubility in DMSO [3]	other results
0.82	0.94 ± 0.05	0.73	0.93	0.32	0.88 ± 0.05	0.11 ± 0.01	low micromolar concentrations	COc1cc2c(cc1C#Cc1ccc(-c3ccccc3)cc1)[Si](c1ccccc1)(c1ccccc1)c1cc(C#Cc3ccc(-c4ccccc4)cc3)c(OC)cc1-2 [7Si]	–	low millimolar concentrations; also recorded: low micromolar concentrations; also recorded: least soluble	–
0.75	0.85 ± 0.06	0.47	0.99	0.93	0.30	0.094 ± 0.01	low micromolar concentrations	COc1ccc2cc(C#Cc3c[c]4c(cc3OC)-c3cc(OC)c(C#Cc5ccc6cc(OC)ccc6c5)c[c]3[Ge]4([c]3ccccc3)[c]3ccccc3)ccc2c1 [8Ge]	–	low millimolar concentrations; also recorded: low micromolar concentrations	–

Second part, the compound before the results:

Structure (SMILES)	φDCM (quantum yield) [1]	φTX (quantum yield) [2]	φSBDS (quantum yield) [2]	φCTAB (quantum yield) [2]	φCHAPS (quantum yield) [2]	φSDS (quantum yield) [2]	φTris (quantum yield) [2]	solubility in aqueous solution [3]	spectral change when Triton X-100 is added [4]	solubility in DMSO [3]	other results
COc1cc2c(cc1C#Cc1cccc(F)c1)[Si](c1ccccc1)(c1ccccc1)c1cc(C#Cc3cccc(F)c3)c(OC)cc1-2 [3Si]	0.80	1.0 ± 0.04	0.49 ± 0.09	0.98	0.90 ± 0.02	0.55 ± 0.03	0.34 ± 0.005	low micromolar concentrations	dramatic blue shifts and emission enhancements	–	emission enhancement upon the addition of detergent/membrane mimics (comparison) [4]: comparable; fluorescence inside cells [5]: observed inside of CHO cells
COc1cc2c(cc1C#Cc1ccc(C)cc1)[Si](c1ccccc1)(c1ccccc1)c1cc(C#Cc3ccc(C)cc3)c(OC)cc1-2 [4Si]	0.89	0.97 ± 0.04	0.56	0.93	0.86	0.55	0.24 ± 0.01	low micromolar concentrations	dramatic blue shifts and emission enhancements	low millimolar concentrations; also recorded: low micromolar concentrations	–
COc1cc2[c](cc1C#Cc1ccc(C(C)(C)C)cc1)[Ge]([c]1ccccc1)([c]1ccccc1)[c]1cc(C#Cc3ccc(C(C)(C)C)cc3)c(OC)cc1-2 [5Ge]	–	–	–	–	–	–	–	–	–	–	solid-state quantum yield [6]: 0.92
COc1cc2[c](cc1C#Cc1ccc(Oc3ccccc3)cc1)[Ge]([c]1ccccc1)([c]1ccccc1)[c]1cc(C#Cc3ccc(Oc4ccccc4)cc3)c(OC)cc1-2 [6Ge]	–	–	–	–	–	–	–	–	–	–	solid-state quantum yield [6]: 0.81
COc1cc2c(cc1C#Cc1cccc3ccc4ccccc4c13)[Si](c1ccccc1)(c1ccccc1)c1cc(C#Cc3cccc4ccc5ccccc5c34)c(OC)cc1-2 [9Si, 2,7-bis(4-ethynylphenanthrene)-3,6-dimethoxy-9,9-diphenylsilafluorene]	–	–	–	–	–	–	–	low micromolar concentrations	dramatic blue shifts and emission enhancements	low millimolar concentrations; also recorded: low micromolar concentrations	solubility in DMSO ([3]; listed as 9.1): least soluble; solubility in aqueous solution ([3]; listed as 2,7-bis-alkynyl(phenanthrene)silafluorene): low micromolar concentration; emission enhancement upon the addition of detergent/membrane mimics (comparison) [4]: greatest emission enhancement; change of fluorescence emission upon addition of DNA [7]: decrease in fluorescence emission; staining pattern in cells [8]: either localizing onto an intracellular structure or self-aggregating within the cell
COc1cc2c(cc1C#Cc1ccc(-n3c4ccccc4c4ccccc43)cc1)[Si](c1ccccc1)(c1ccccc1)c1cc(C#Cc3ccc(-n4c5ccccc5c5ccccc54)cc3)c(OC)cc1-2 [11Si]	–	–	–	–	–	–	–	low micromolar concentrations	–	low millimolar concentrations; also recorded: low micromolar concentrations	–
COc1cc2c(cc1C#Cc1ccc(C=O)cc1)[Si](c1ccccc1)(c1ccccc1)c1cc(C#Cc3ccc(C=O)cc3)c(OC)cc1-2 [13Si, 2,7-bis(4-ethynylbenzaldehyde)-3,6-dimethoxy-9,9-diphenylsilafluorene]	–	–	–	–	–	–	–	low micromolar concentrations	dramatic blue shifts and emission enhancements	low millimolar concentrations; also recorded: low micromolar concentrations	emission enhancement upon the addition of detergent/membrane mimics (comparison) [4]: comparable; staining pattern in cells [8]: staining diffuse throughout the cell; emission λmax depending on the solvent ([9]; ethanol, dichloromethane, hexanes): 440-550 nm; emission colour ([9]; in ethanol): green; emission colour ([9]; in nonpolar solvents): blue
FC(F)(F)c1ccc(C#Cc2cc[c]3c(c2)-c2cc(C#Cc4ccc(C(F)(F)F)cc4)cc[c]2[Ge]3([c]2ccccc2)[c]2ccccc2)cc1 [16Ge]	–	–	–	–	–	–	–	–	–	–	shift of absorbance and emission compared to related 2,7-disubstituted derivatives ([10]; 3,6-disubstituted versus 2,7-disubstituted): significant blue-shift; absorption maximum ([10]; CH2Cl2 solution): 288 nm; emission maximum ([10]; CH2Cl2 solution): 352 nm; emission from the solid-state ([10]; solid-state): 393 nm
COc1cc2c(cc1C#Cc1cccc(F)c1)[Si](c1ccccc1)(c1ccccc1)c1cc(C#Cc3cccc(F)c3)c(OC)cc1-2 [meta-fluoro-silafluorene]	–	–	–	–	–	–	–	–	–	–	emission (in words) ([10]; methylene chloride solution and solid state): strong emission

Reference: US12473308B2, “Luminescent silafluorene and germafluorene compounds” (The Curators Of The University Of Missouri, priority 2019, dated 2025)
